Experimental data as given in patent US7256176B2, “Methods of modulating β cell function” (Joslin Diabetes Center, Inc., priority 2002, dated 2007).
Positions of bridges follow the written chain, without caps; N, C: chain ends.

Tests used:
human MCH-2R = human MCH-2R (Homo sapiens, UniProt Q969V1); details: cited from earlier work
feeding = details: administered ICV; cited from earlier work
rat adipocytes = details: cited from earlier work
[1] = system: islets isolated from C57B1/6J mice; assay: MCH stimulation of insulin secretion from overnight cultured isolated islets; assay type: cell-based, mouse
MAP kinase = assay: Effect of MCH on MAP kinase activity in islets or clonal β-cells; assay type: cell-based, mouse; details: islets or clonal β-cells treated with 1 μM MCH
Text: To begin to examine the mechanism of action of MCH in the islets the effect of the peptide on MAP kinase activity was investigated.

[2] = system: islets isolated from MCH over expressing mice; assay: MCH treatment of islets from MCH over expressing mice (insulin secretion); assay type: cell-based, mouse; details: n=2, control 2.8±0.36

Chain of human MCH-2R (Q969V1 whole entry): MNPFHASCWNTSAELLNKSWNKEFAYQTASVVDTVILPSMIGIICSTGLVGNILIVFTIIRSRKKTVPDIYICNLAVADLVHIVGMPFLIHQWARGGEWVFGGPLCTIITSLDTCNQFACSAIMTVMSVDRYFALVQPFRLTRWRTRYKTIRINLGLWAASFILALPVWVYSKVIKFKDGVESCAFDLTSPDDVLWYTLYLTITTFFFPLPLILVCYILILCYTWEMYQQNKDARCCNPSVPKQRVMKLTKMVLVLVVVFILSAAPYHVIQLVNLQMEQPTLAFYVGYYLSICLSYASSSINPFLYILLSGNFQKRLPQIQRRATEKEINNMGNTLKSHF

Substance | activation of receptor compared with full-length human MCH (human MCH-2R) | feeding (feeding) | leptin secretion (rat adipocytes) | insulin secretion ([1]; 100 nM MCH, 30 min incubation, 11.1 mM glucose, n=3, p<0.02 vs control 0.86±0.22) | insulin secretion, dependence on concentration and time ([1]; overnight cultured islets) | effect on MAP kinase levels (MAP kinase) | insulin secretion [2]
Arg-cyclo(S-S)(Cys-Met-Leu-Gly-Arg-Val-Tyr-Arg-Pro-Cys) | about as effectively as full-length human MCH |  |  |  |  |  | 
NH2-Asp-Phe-Asp-Met-Leu-Arg-Cys-Met-Leu-Gly-Arg-Val-Tyr-Arg-Pro-Cys-Trp-Gln-Val-COOH (H-DFDMLRCMLGRVYRPCWQV-OH; disulfide 7-16 (inferred); ends not checked) [MCH, cyclic 19 amino-acid peptide that is an important regulator of feeding behavior] |  | acute increase in feeding | stimulate leptin secretion | 2.1±0.11 % of insulin content | concentration- and time-dependent insulin secretion | No consistent effect | 11.4±0.49 pg/μg protein
